In ChEMBL document CHEMBL3885881, “DrugMatrix”:

Organism: Rattus norvegicus
Assay: DrugMatrix - Regimen: Daily Repeat
Type: toxicity, organism-based, Sprague-Dawley
Set-up: regimen Daily Repeat, gender Male, age 6-8 weeks
Settings: in vivo, po, route oral GAVAGE, vehicle .5 % CMC; for URIC ACID / ALANINE AMINOTRANSFERASE / ALBUMIN / ALKALINE PHOSPHATASE / ASPARTATE AMINOTRANSFERASE / BLOOD UREA NITROGEN / CARBON DIOXIDE / CHLORIDE / CHOLESTEROL / CREATINE PHOSPHOKINASE / CREATININE / GLUCOSE / LACTATE DEHYDROGENASE / LIPASE / PHOSPHORUS / POTASSIUM / SODIUM / TOTAL BILIRUBIN / TOTAL PROTEIN: tissue Plasma; for BASOPHIL / EOSINOPHIL / ERYTHROCYTE COUNT / HEMATOCRIT / HEMOGLOBIN / LEUKOCYTE COUNT / LYMPHOCYTE / MEAN CORPUSCULAR HEMOGLOBIN / MEAN CORPUSCULAR HEMOGLOBIN CONCENTRATION / MEAN CORPUSCULAR VOLUME / MONOCYTE / NEUTROPHIL / PLATELET COUNT: tissue Blood
[1] = 82 mg/kg, 72 h, dose level High, time 3 day
[2] = 82 mg/kg, 120 h, dose level High, time 5 day
[3] = 82 mg/kg, […], dose level High, time 14 day

`CCOP(=S)(OCC)Oc1nc(Cl)c(Cl)cc1Cl` [CHLORPYRIFOS] was tested, and the “URIC ACID” value (0 mg/kg, […], dose level Control, time 14 day) was 1.78 mg/dL, the BASOPHIL [1] was 0.9% and the EOSINOPHIL [1] was 0.43%. For the same compound, the “ERYTHROCYTE COUNT” value [1] was 6.87 x10E6/uL, the HEMATOCRIT [1] was 44.5% and the HEMOGLOBIN [1] was 14.33 G/DL. The “LEUKOCYTE COUNT” value [1] was 11.45 x10E3/uL, the LYMPHOCYTE [1] was 88.3% and the “MEAN CORPUSCULAR HEMOGLOBIN” value [1] was 20.9 pg. For the same compound, the “MEAN CORPUSCULAR HEMOGLOBIN CONCENTRATION” value [1] was 32.27 G/DL, the “MEAN CORPUSCULAR VOLUME” value [1] was 64.87 fL and the MONOCYTE [1] was 1.27%. The NEUTROPHIL [1] was 7.87%, the “PLATELET COUNT” value [1] was 1233 x10E3/uL and the “ALANINE AMINOTRANSFERASE” value [1] was 42 u/L. The ALBUMIN [1] was 4.03 G/DL, the “ALKALINE PHOSPHATASE” value [1] was 285.67 u/L and the “ASPARTATE AMINOTRANSFERASE” value [1] was 78.33 u/L. The “BLOOD UREA NITROGEN” value [1] was 15.33 mg/dL, the “CARBON DIOXIDE” value [1] was 30.33 mmol/L and the CHLORIDE [1] was 103.67 MEQ/L. The CHOLESTEROL [1] was 47 mg/dL, the “CREATINE PHOSPHOKINASE” value [1] was 263.33 u/L and the CREATININE [1] was 0.5 mg/dL. The GLUCOSE [1] was 170 mg/dL, the “LACTATE DEHYDROGENASE” value [1] was 57.67 u/L and the LIPASE [1] was 11 u/L. It also gave a PHOSPHORUS [1] of 13.43 mg/dL, a POTASSIUM [1] of 7.33 MEQ/L and an SODIUM [1] of 146 MEQ/L. The “TOTAL BILIRUBIN” value [1] was 0.37 mg/dL, the “TOTAL PROTEIN” value [1] was 5.93 G/DL and the “URIC ACID” value [1] was 1.53 mg/dL. The BASOPHIL [2] was 0.33%, the EOSINOPHIL [2] was 0.5% and the “ERYTHROCYTE COUNT” value [2] was 7.39 x10E6/uL. For the same compound, the HEMATOCRIT [2] was 47.37%, the HEMOGLOBIN [2] was 15.03 G/DL and the “LEUKOCYTE COUNT” value [2] was 10.09 x10E3/uL. For the same compound, the LYMPHOCYTE [2] was 72.77%, the “MEAN CORPUSCULAR HEMOGLOBIN” value [2] was 20.37 pg and the “MEAN CORPUSCULAR HEMOGLOBIN CONCENTRATION” value [2] was 31.73 G/DL. The “MEAN CORPUSCULAR VOLUME” value [2] was 64.2 fL, the MONOCYTE [2] was 4.53% and the NEUTROPHIL [2] was 20.93%. The “PLATELET COUNT” value [2] was 1284.67 x10E3/uL, the “ALANINE AMINOTRANSFERASE” value [2] was 55.33 u/L and the ALBUMIN [2] was 3.9 G/DL. For the same compound, the “ALKALINE PHOSPHATASE” value [2] was 305.67 u/L, the “ASPARTATE AMINOTRANSFERASE” value [2] was 236.67 u/L and the “BLOOD UREA NITROGEN” value [2] was 13 mg/dL. The “CARBON DIOXIDE” value [2] was 28.33 mmol/L, the CHLORIDE [2] was 103.67 MEQ/L and the CHOLESTEROL [2] was 44.67 mg/dL. For the same compound, the “CREATINE PHOSPHOKINASE” value [2] was 186.67 u/L, the CREATININE [2] was 0.33 mg/dL and the GLUCOSE [2] was 139.33 mg/dL. The “LACTATE DEHYDROGENASE” value [2] was 62.67 u/L, the LIPASE [2] was 8 u/L and the PHOSPHORUS [2] was 12.8 mg/dL. The POTASSIUM [2] was 6 MEQ/L, the SODIUM [2] was 148 MEQ/L and the “TOTAL BILIRUBIN” value [2] was 0.27 mg/dL. The “TOTAL PROTEIN” value [2] was 6 G/DL, the “URIC ACID” value [2] was 1.63 mg/dL and the BASOPHIL [3] was 0.37%. For the same compound, the EOSINOPHIL [3] was 0.67%, the “ERYTHROCYTE COUNT” value [3] was 7.6 x10E6/uL and the HEMATOCRIT [3] was 45.9%. The HEMOGLOBIN [3] was 15.3 G/DL, the “LEUKOCYTE COUNT” value [3] was 16.12 x10E3/uL and the LYMPHOCYTE [3] was 84.43%. For the same compound, the “MEAN CORPUSCULAR HEMOGLOBIN” value [3] was 20.2 pg, the “MEAN CORPUSCULAR HEMOGLOBIN CONCENTRATION” value [3] was 33.37 G/DL and the “MEAN CORPUSCULAR VOLUME” value [3] was 60.43 fL. The MONOCYTE [3] was 1.7%, the NEUTROPHIL [3] was 11.33% and the “PLATELET COUNT” value [3] was 1183 x10E3/uL. The “ALANINE AMINOTRANSFERASE” value [3] was 46 u/L, the ALBUMIN [3] was 4.3 G/DL and the “ALKALINE PHOSPHATASE” value [3] was 329.67 u/L. The “ASPARTATE AMINOTRANSFERASE” value [3] was 114 u/L, the “BLOOD UREA NITROGEN” value [3] was 16.33 mg/dL and the “CARBON DIOXIDE” value [3] was 26.67 mmol/L. The CHLORIDE [3] was 101 MEQ/L, the CHOLESTEROL [3] was 72 mg/dL and the “CREATINE PHOSPHOKINASE” value [3] was 262 u/L. The CREATININE [3] was 0.43 mg/dL, the GLUCOSE [3] was 144 mg/dL and the “LACTATE DEHYDROGENASE” value [3] was 145.67 u/L. It also gave an LIPASE [3] of 9 u/L, a PHOSPHORUS [3] of 10.07 mg/dL and a POTASSIUM [3] of 6.2 MEQ/L. The SODIUM [3] was 149 MEQ/L, the “TOTAL BILIRUBIN” value [3] was 0.4 mg/dL and the “URIC ACID” value [3] was 1.8 mg/dL.
